Experimental data: patent publication US7338932B2, “Methods of modulating functions of polypeptide GalNAc-transferases and of screening test substances to find agents herefor, pharmaceutical compositions comprising such agents and the use of such agents for preparing medicaments” (Glycozym APS, priority 2000, dated 2008)
Entries after “also recorded” stand apart in the source; their conditions may differ.

How the values were obtained:
GalNAc-T4 [1] = biological target: T1, GalNAc-T4 (Homo sapiens, UniProt Q8N4A0); assay: Inhibition of glycosylation dependent (GalNAc-glycopeptide) activity of GalNAc-T4, MALDI-TOF time-course; assay type: biochemical; details: […] free sugar
T1 construct: using the GalNAc-T4-sol construct that encodes residues 32-578 inserted into pT7T3U19; made in house; host or cells: High Five insect cells (baculovirus, pAcGP67)
Method: (§1) MALDI-TOF time-course in terminal reactions were performed in reactions of 25 μl containing 2.5 nmol acceptor (glyco)peptide, 40 nmol UDP-GalNAc, and 0.4 μg GalNAc-T4. Sampling of reactions (1 μl) were purified by nano-scale reversed-phase chromatography (Poros R3, PerSeptive Biosystem) and applied directly to the probe with matrix (41). The amount of GalNAc-transferase added was adjusted so that the reaction with the appropriate peptide was near completion in six hours. Reactions were incubated at 37° C. in a shaker bath. At times 0, 2 hours, and 16 hours a 1 μl aliquot was taken and purified. Mass spectra were acquired on either Voyager-DE mass spectrometer equipped with delayed extraction (Perseptive Biosystem Inc.). The matrix used was 2,5-dihydroxybenzoic acid (10 mg/ml, Hewlett-Packard) dissolved in a 2:1 mixture of 0.1% trifluoroacetic acid in 30% aqueous acetonitrile (Rathburn Ltd.).
Quantification of purified proteins was done by Coomassie stained SDS-PAGE and titration of immunoreactivity with the monoclonal antibody, UH6(4G2) (8). […] Wild-type GalNAc-T4 and mutant GalNAc-T4, GalNAc-T4^459H, were analysed with unglycosylated peptides (represented by PSGL-1) or GalNAc glycosylated glycopeptides (represented by GalNAc3TAP25V21) in reactions of 25 μl containing 2.5 nmol acceptor (glyco)peptide, 40 nmol UDP-GalNAc, and 0.4 μg GalNAc-T4. Time-course assays were motioned by MALDI-TOF. Sampling of reactions (1 μl) were purified by nano-scale reversed-phase chromatography (Poros R3, PerSeptive Biosystem) and applied directly to the probe with matrix. Evaluation of inhibition of the glycopeptide specificity of wild-type GalNAc-T4 with free sugars was performed to establish if the lectin domain recognized carbohydrate. […] Further, analysis was performed with 10 mM α-D-GalNAc-1-benzyl, αGlcNAc-benzyl, and fully occupied GalNAc-glycopeptide, GalNAc6TAP25, at 5 mM.

GalNAc-T4 [2] = assay: Glycosylation independent activity of GalNAc-T4 with naked peptides, MALDI-TOF; assay type: biochemical, human; details: GalNAc-T4 459D or 459H
Method: as §1
Quantification of purified proteins was done by Coomassie stained SDS-PAGE and titration of immunoreactivity with the monoclonal antibody, UH6(4G2) (8). […] Wild-type GalNAc-T4 and mutant GalNAc-T4, GalNAc-T4^459H, were analysed with unglycosylated peptides (represented by PSGL-1) or GalNAc glycosylated glycopeptides (represented by GalNAc3TAP25V21) in reactions of 25 μl containing 2.5 nmol acceptor (glyco)peptide, 40 nmol UDP-GalNAc, and 0.4 μg GalNAc-T4. […]

GalNAc-T2 = biological target: T2, GalNAc-T2 (Homo sapiens, UniProt Q10471); assay: GalNAc-T2 transferase activities with UDP-GalNAc or UDP-Gal donor (Muc2 acceptor, peptide panel); assay type: biochemical; details: UDP-Gal donor; Muc2 substrate
T2 construct: Soluble, secreted expression constructs of human GalNAc-transferases GalNAc-T1, -T2, -T3, -T4, -T6, -T7, and -T11; made in house; host or cells: insect cells (baculovirus)
Method: (§2) Standard reaction mixtures (50 μl final volume) contained 25 mM cocadylate (pH 7.4), 10 mM MnCl2, 0.25% Triton X-100, 200 μM UDP-[^14C]-GalNAc (2,000 cpm/nmol) (Amersham), 200-500 μM acceptor peptides. Products were quantified by scintillation counting after chromatography on Dowex-1, octadecyl silica cartridges (Bakerbond), or HPLC (PC3.2/3 or mRPC C2/C18 SC2.1/10 Pharmacia, Smart System). […] Glycopeptides were purified on Supelclean LC-18 columns (1 ml, Supelco), and the number of GalNAc residues incorporated evaluated by MALDI-TOF mass spectrometry. The enzyme sources used were semipurified as previously described by successive sequential ion-exchange chromatographies on Amberlite (IRA95, Sigma) or DEAE Sephacel (Pharmacia), S-Sepharose Fast Flow (Pharmacia), and Mini-S™ (PC 3.2/3, Pharmacia) using the Smart System (Pharmacia) (28). Secreted GalNAc-T4 was obtained from a stably transfected CHO line (CHO/GalNA-T4/21A) (8) grown in roller bottles in HAMS F12 supplemented with 10% Fetal Bovine Serum. The experiments illustrated in FIG. 1 was performed with recombinant secreted GalNAc-T4 obtained from a stably transfected CHO line (8). Experiments illustrated in FIGS. 2 and 3 were performed with secreted GalNAc-T4 expressed in High Five cells grown in serum-free medium (8). Structural analysis of glycopeptides were performed by a combination of PFPA (pentafluoropropionic acid) hydrolysis and MALDI-TOF mass spectrometry as previously described (40). Secreted GalNAc-T7 was obtained from infected High Five™ cells grown in serum-free medium (Invitrogen) in upright roller bottles shaken 140 rpm in waterbaths at 27° C. GalNAc-T7 was not purified by Mini-S as the yields from cationic chromatography were low due to its low pI (6.4).
(§3) Galactosyl transferring activities of GalNAc-T1, -T2, and -T3, were assayed with a panel of acceptor peptides in standard reaction mixtures containing 100 μM UDP-Gal instead of UDP-GalNAc. […] Further, analysis was performed with 10 mM α-D-GalNAc-1-benzyl, αGlcNAc-benzyl, and fully occupied GalNAc-glycopeptide, GalNAC6TAP25, at 5 mM.

GalNAc-T3 = biological target: T3, GalNAc-T3 (Homo sapiens, UniProt Q14435); assay: GalNAc-T3 transferase activities with UDP-GalNAc or UDP-Gal donor (EA2 acceptor, peptide panel); assay type: biochemical; details: UDP-Gal donor; printed Muc2 substrate
T3 construct: Soluble, secreted expression constructs of human GalNAc-transferases GalNAc-T1, -T2, -T3, -T4, -T6, -T7, and -T11; made in house; host or cells: insect cells (baculovirus)
T3 sequence (Q14435 38-633 limits assumed): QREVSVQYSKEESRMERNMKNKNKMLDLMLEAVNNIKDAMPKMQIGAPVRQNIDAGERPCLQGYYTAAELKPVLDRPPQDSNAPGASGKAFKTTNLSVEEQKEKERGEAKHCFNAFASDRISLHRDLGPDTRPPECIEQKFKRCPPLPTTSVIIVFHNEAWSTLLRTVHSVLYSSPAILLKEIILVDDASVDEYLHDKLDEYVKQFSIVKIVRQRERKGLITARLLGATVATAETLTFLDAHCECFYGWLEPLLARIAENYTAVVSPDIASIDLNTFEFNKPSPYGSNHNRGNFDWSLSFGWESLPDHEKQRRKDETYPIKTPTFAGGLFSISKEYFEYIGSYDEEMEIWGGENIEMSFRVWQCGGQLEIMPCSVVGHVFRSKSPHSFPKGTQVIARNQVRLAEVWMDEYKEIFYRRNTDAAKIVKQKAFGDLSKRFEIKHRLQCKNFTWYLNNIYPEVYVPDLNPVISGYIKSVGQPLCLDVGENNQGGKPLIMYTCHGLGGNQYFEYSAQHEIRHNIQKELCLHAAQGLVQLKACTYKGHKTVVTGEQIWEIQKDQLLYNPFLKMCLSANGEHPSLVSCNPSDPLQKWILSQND
Method: as §2, §3

GalNAc-T7 = biological target: T4, GalNAc-T7 (Homo sapiens, UniProt Q86SF2); assay: Inhibition of GalNAc-T7 activity with GalNAc2-3EA2 substrate; assay type: biochemical; details: 5 mM
T4 construct: made in house; host or cells: High Five insect cells (baculovirus)
T4 sequence (Q86SF2 30-657 limits assumed): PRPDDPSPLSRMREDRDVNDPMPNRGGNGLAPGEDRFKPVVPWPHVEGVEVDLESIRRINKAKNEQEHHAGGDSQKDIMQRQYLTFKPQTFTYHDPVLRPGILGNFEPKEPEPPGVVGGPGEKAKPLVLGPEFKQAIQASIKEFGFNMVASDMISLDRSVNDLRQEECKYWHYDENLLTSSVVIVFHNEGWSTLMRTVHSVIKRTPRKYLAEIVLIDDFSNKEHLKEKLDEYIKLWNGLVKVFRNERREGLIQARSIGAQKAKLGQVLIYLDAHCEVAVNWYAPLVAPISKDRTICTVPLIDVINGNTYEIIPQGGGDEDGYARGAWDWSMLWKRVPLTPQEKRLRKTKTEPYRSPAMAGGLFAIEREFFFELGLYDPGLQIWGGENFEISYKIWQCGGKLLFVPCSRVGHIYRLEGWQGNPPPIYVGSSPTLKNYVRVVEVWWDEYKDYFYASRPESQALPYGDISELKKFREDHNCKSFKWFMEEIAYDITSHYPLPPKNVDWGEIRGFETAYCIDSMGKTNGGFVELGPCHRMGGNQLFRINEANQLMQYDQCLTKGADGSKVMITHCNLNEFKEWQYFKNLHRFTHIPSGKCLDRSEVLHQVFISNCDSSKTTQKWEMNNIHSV
Method: as §2
GalNAc-T7 activity was analysed with GalNAc glycosylated glycopeptides (represented by GalNAc2-3EA2 (7)) in reactions of 25 μl containing 2.5 nmol acceptor (glyco)peptide, 40 nmol UDP-GalNAc, and purified GalNAc-T7. […]

[3] = test system: CHOldlD/MUC1F-clone2 cells; assay: MUC1 expression in cell lysates, immunoprecipitation and SDS-PAGE western blot; assay type: cell-based, Chinese Hamster; details: 2 mM, 36 hours
Method: We next analysed the expression of MUC1 produced by CHOldlD/MUC1F-clone2 cells by SDS-PAGE western analysis. […] Cells were further treated with 2 mM GalNAcα-benzyl, GlcNAcα-benzyl or no inhibitor. Cells were washed and lysed at 24 or 48 hours and the lysates subjected to immunoprecipitation with monoclonal antibody HMFG2, which broadly recognize MUC1 glycoforms. Immunoprecipitates were analysed by SDS-PAGE and western blot using HMFG2 antibody to detect MUC1 expression. […] In striking contrast, treatment with GalNAcα-benzyl had significant effect after 48 hours. […] This indicates some heterogeneity in glycosylation.
As shown in Examples 8 and 9, polypeptide GalNAc-transferases contain lectin domains with binding properties for GalNAc-peptides including GalNAc-MUC1 peptides. […] GalNAcβ-benzyl, the β-anomeric configuration of GalNAc-benzyl (there is a β linkage between the N-acetylgalactosamine and the benzyl ring), was custom synthesized by Alberta Research Council (Canada), and its structure was confirmed by mass spectrometry and ^1H-NMR. […] Cells were then treated with 2 mM GalNAcα-benzyl, GalNAcβ-benzyl, or GlcNAcα-benzyl as control (GlcNAcα-benzyl was shown in Example 10 to have no effect). Cells were washed and lysed as described above after 36 hours and the lysates subjected to immunoprecipitation with anti-MUC1 monoclonal antibodies HMFG2 or 5E5. […] FIG. 17 illustrates the same experiments as in FIG. 16 except that the detection antibody is 5E5 and only Tn and STn MUC1 glycoforms are visualised.

[4] = test system: wild type CHO/MUC1sol-cloneC4; assay: Secretion of MUC1, western blot of medium; assay type: cell-based, Chinese Hamster; details: 1-2 mM; compared to control treated or non-treated cells
Method: In order to characterize the secreted MUC1 product SDS-PAGE western blot analysis of harvested culture medium of confluent cultures were performed. Ten to twenty μL culture supernatant was analysed directly or treated with 0.1 U/mL neuraminidase (C. Perfringes VI, Sigma) for 30-60 min at 37° C. Samples were mixed with SDS sample buffer, reduced with DTT, and run on precast 4-20% gels (Biorad). As shown in FIG. 9 anti-MUC1 antibodies detected two forms of MUC1 in the medium; a low molecular weight form migrating as 130-140 kd corresponding to unglycosylated product, and a high molecular weight form migrating above 250 kd. The high molecular weight form was sensitive to neuraminidase treatment as evidenced by a marked shift and retardation in migration. […]
Because GalNAcα-benzyl exerts separate effects on O-glycan processing and mucin expression, the use of the novel selective inhibitor of mucin expression, GalNAcβ-benzyl, allow analysis of mucin expression and secretion in different cell line models. […] Most human adenocarcinoma cell lines express and secret mucins and analysis with antibodies to detect protein expression or probes to detect mRNA can reveal the types and quantities of mucins. […] The inhibitory effect on mucin secretion can be quantified by a number of assays known to the skilled in the art including western blot, ELISA, gelfiltration, immunocapture, and other assays.

T2 sequence (Q10471 52-571 limits assumed): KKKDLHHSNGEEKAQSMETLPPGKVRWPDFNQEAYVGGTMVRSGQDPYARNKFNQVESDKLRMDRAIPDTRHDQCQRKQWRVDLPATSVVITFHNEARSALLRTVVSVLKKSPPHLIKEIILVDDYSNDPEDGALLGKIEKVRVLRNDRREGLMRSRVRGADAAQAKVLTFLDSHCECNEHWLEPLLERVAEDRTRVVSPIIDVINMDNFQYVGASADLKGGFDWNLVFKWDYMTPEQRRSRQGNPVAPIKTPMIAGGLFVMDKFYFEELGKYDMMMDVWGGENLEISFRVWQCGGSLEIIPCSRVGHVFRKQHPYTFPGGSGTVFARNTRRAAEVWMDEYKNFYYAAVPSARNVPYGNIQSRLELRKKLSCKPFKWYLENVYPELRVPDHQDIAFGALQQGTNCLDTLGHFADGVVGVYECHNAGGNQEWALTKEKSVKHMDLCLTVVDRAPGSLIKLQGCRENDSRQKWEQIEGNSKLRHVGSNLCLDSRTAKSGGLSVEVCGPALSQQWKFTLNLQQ
T1 sequence (Q8N4A0 32-578): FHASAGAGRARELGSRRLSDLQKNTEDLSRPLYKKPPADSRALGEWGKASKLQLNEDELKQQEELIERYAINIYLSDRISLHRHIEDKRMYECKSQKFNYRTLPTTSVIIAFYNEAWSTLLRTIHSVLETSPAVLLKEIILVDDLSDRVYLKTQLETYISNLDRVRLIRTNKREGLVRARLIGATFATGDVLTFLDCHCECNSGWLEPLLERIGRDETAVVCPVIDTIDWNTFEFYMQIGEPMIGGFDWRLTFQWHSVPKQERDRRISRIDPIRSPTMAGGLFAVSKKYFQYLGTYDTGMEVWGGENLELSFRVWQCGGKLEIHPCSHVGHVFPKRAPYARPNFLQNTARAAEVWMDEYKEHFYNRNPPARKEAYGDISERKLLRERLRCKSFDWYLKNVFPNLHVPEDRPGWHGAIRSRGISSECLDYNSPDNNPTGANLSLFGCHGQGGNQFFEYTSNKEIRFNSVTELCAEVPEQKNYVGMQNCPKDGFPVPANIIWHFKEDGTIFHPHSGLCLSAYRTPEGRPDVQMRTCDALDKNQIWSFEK

For CC(=O)N[C@H]1C(O)O[C@H](CO)[C@H](O)[C@@H]1O (stereo partly shown) [GalNAc, N-acetylgalactosamine], the “Inhibition of glycosylation dependent specificity of GalNAc-T4” value (GalNAc-T4 [1]) was “almost completely inhibited”, the “Effect on glycosylation independent activities of GalNAc-T4” value (GalNAc-T4 [2]) was “no effect” and the “Inhibition of galactosyltransferase activity of GalNAc-T2” value (GalNAc-T2) was “selectively inhibited”. For the same molecule, the “Inhibition of galactosyltransferase activity of GalNAc-T3” value (GalNAc-T3) was “selectively inhibited”.
With OC[C@H]1O[C@@H](OCc2ccccc2)[C@H](O)[C@@H](O)[C@H]1O [bz-βGal] the “Inhibition of GalNAc-T7 activity with GalNAc2-3EA2” value (GalNAc-T7) was “significantly inhibited”.
CC(=O)N[C@H]1[C@@H](OCc2ccccc2)O[C@H](CO)[C@H](O)[C@@H]1O[C@@H]1O[C@H](CO)[C@H](O)[C@H](O)[C@H]1O [Galβ1-3GalNAcα1-bz] was tested, and the “Inhibition of GalNAc-T7 activity with GalNAc2-3EA2” value (GalNAc-T7) was “significantly inhibited”.
With CC(=O)N[C@H]1[C@H](OCc2ccccc2)O[C@H](CO)[C@H](O)[C@@H]1O [GalNAcβ-benzyl, benzyl-2-acetamido-2-deoxy-β-D-galactopyranoside galactosamine] the MUC1 expression ([3]; blot 5E5, cells grown in GalNAc) was “strong inhibition; also recorded: same or better reduction in MUC1 expression”, the MUC1 expression ([3]; blot HMFG2, grown in GalNAc or Gal and GalNAc) was “same or better reduction in MUC1 expression” and the “SDS-PAGE migration of MUC1 (O-glycosylation)” value ([3]; cells grown in Gal and GalNAc) was “no change in the migration of MUC1”. For the same molecule, the “Secreted MUC1 in medium” value [4] was “inhibition of secreted MUC1”.
